Like-named read-outs stand apart in the source and are kept apart here. Blank lines part the entries; values can stand above or below the compound they belong to.
Tests used:
[1] = patients studied to date; cited from earlier work
[2] = system: lipid parameters (markers of lipid metabolism); assay: Fasting serum lipid profile in 52-week clinical study; format: in vivo, patients; conditions: for Apo A1, Change From Baseline, Mean / Apo B, Change From Baseline, Mean / Free Fatty Acids, Change From Baseline, Mean / Free Fatty Acids, Change From Baseline, Median / HDL Cholesterol, Change From Baseline, Mean / HDL Cholesterol, Change From Baseline, Median / LDL Cholesterol, Change From Baseline, Mean / LDL Cholesterol, Change From Baseline, Median / LP(a), Change From Baseline, Mean / Total Cholesterol, Change From Baseline, Mean / Total Cholesterol, Change From Baseline, Median / Triglycerides, Change From Baseline, Mean / Triglycerides, Change From Baseline, Median / VLDL Cholesterol, Change From Baseline, Mean / VLDL Cholesterol, Change From Baseline, Median: ITT, Week 52; for LDL adjusted mean increase, difference from glyburide / total cholesterol adjusted mean increase, difference from glyburide: Month 12
Method: After an initial screening visit, patients meeting the inclusion criteria entered a 4-week baseline phase (unblinded) in which they received 12 mg micronized glyburide (6 mg BID).
Secondary efficacy parameters included markers of glycemic homeostasis (insulin and C-peptide) and markers of lipid metabolism (total cholesterol, total triglycerides, HDL, VLDL, LDL (measured), free fatty acids, Lp(a), Apo A1, and Apo B).
Efficacy analysis was performed on 2 patient populations, intent-to-treat and completers. […] Patients withdrawing from the study before Week 52 were included in the analysis using the LOCF procedure; the last measurement on treatment was substituted for the missing Week 52 measurement. The intent-to-treat patient sample was the primary sample for assessing efficacy. Completers comprised patients in the intent-to-treat sample who completed Week 52.
Summary statistics for baseline, follow-up (post-randomization), and change from baseline in secondary efficacy parameters were computed by treatment group and visit. For each patient, the baseline measurements for insulin, C-peptide, blood pressure, total cholesterol, triglycerides, LDL, HDL, VLDL, and free fatty acids were defined as the measurement at Week 0. In order to reduce variability, the baseline Apo A, Apo B, and Lp(a) levels were defined as the average of the respective measurements at Weeks -1 and 1. Similarly, the end-of-treatment Apo A, Apo B, and Lp(a) measurements were defined as the average of the respective measurements at Weeks 48 and 52. Averages from Weeks 20 and 24 were not carried forward for these special lipid parameters.
Fasting serum lipid profiles were determined at baseline and periodically through Week 52. Apo A1, Apo B, and Lp(a) were determined only at baseline, Month 6, and Month 12 as part of a special laboratory panel.

[3] = system: total insulin and C-peptide; assay: Fasting total insulin and C-peptide in 52-week clinical study; format: in vivo, patients; conditions: for C-Peptide, Adjusted Mean Change From Baseline (SE) / Total Insulin, Adjusted Mean Change From Baseline (SE) / C-Peptide, Adjusted Mean Difference From Glyburide / Total Insulin, Adjusted Mean Difference From Glyburide: ITT, Week 52; for C-Peptide, Adjusted Mean Difference From Glyburide / Total Insulin, Adjusted Mean Difference From Glyburide: *p ≤ 0.05
Method: This was a 12-month, double-blind, randomized, parallel-group, active-control, multicenter study design (FIG. 1). […] Secondary efficacy parameters included markers of glycemic homeostasis (insulin and C-peptide) and markers of lipid metabolism (total cholesterol, total triglycerides, HDL, VLDL, LDL (measured), free fatty acids, Lp(a), Apo A1, and Apo B). Efficacy analysis was performed on 2 patient populations, intent-to-treat and completers. […] Patients withdrawing from the study before Week 52 were included in the analysis using the LOCF procedure; the last measurement on treatment was substituted for the missing Week 52 measurement. The intent-to-treat patient sample was the primary sample for assessing efficacy. Completers comprised patients in the intent-to-treat sample who completed Week 52. The analysis of change from baseline to Week 52 was performed using analysis of covariance (ANCOVA). The primary model included effects due to treatment and center and baseline as covariate. Treatment-by-baseline and treatment-by-center interactions were also examined in supplemental models.

[4] = system: postprandial glucose tolerance; assay: 2-hour meal tolerance test (postprandial glucose, insulin, C-peptide AUC); format: in vivo, patients; conditions: Month 12, vs glyburide, p ≤0.05; all combination doses and 600 mg troglitazone monotherapy
Method: The effect of treatment on the pattern of postprandial glucose tolerance (standard 2-hour meal tolerance test) was determined in a subset of patients.
A 2-hour meal tolerance test to assess postprandial glucose and insulin excursions in response to a premeasured meal (breakfast) was conducted in a subset of patients at baseline, Week 24, and at the end of treatment. […] Additional parameters included total insulin and C-peptide. Analyses of the meal tolerance parameters were based on observations at the end of treatment; observations from Week 24 were not carried forward.
Summary statistics for glucose, insulin, and C-peptide levels every 30 minutes for 2 hours were provided at baseline, and Months 6 and 12.
The change from baseline in each response variable was compared between treatment groups using analysis of covariance. The analysis included all patients who had baseline and Month 12 test data. The primary model included effects due to treatment and center and baseline as covariate. The 95% confidence interval for the treatment difference based on the primary model was provided for each pairwise comparison of treatment groups.
Meal tolerance testing was performed in a subset of patients at baseline and at Months 6 and 12. Postprandial glucose, insulin, and C-peptide levels were determined at 30, 60, 90, and 120 minutes after a standard meal (Sustacal HC) (Table 13).

[5] = Trough plasma concentrations of troglitazone; format: in vivo, patients; conditions: Week 12; for concentration at 2016 h: human, plasma, po, alone or + glyburide, read-out: Mean (% RSD) Trough Plasma Concentration of Troglitazone
Method: Trough plasma concentrations of troglitazone were determined at Week 12. Blood samples (7 mL) were collected in heparinized glass tubes. Following centrifugation, plasma samples were transferred to plastic tubes and stored at -20° C. until assayed. Plasma samples were assayed at Corning Hazleton, Inc., PO Box 7545, Madison, Wis., 53707, using a validated liquid chromatographic method with electrochemical detection. The minimum quantitation limit for troglitazone was 5 ng/mL. Concentrations below the limit of quantitation were reported as zero. The analysts remained blinded to the treatment randomization code during sample analysis.

[6] = troglitazone 200 mg, or 200 mg/12 mg in combination
[7] = troglitazone 400 mg, or 400 mg/12 mg in combination
[8] = troglitazone 600 mg, or 600 mg/12 mg in combination
[9] = Week 52, compared with glyburide
[10] = glyburide monotherapy (active control)

- concentration at 2016 h ([5]; 200 mg QD): 145 ng/mL
- concentration at 2016 h ([5]; 400 mg QD): 238 ng/mL
- concentration at 2016 h ([5]; 600 mg QD): 285 ng/mL
SMILES: Cc1c(C)c2c(c(C)c1O)CCC(C)(COc1ccc(CC3SC(=O)NC3=O)cc1)O2 (stereo not shown) [Troglitazone]
- hypoglycemia (result in words) [1]: has not caused hypoglycemia
- HDL adjusted mean change, difference from glyburide ([2]; 600 mg troglitazone monotherapy, p<0.05): 4.9 mg/dL
- Apo A1, Change From Baseline, Mean [2, 6]: 1.9 mg/dL
- Apo B, Change From Baseline, Mean [2, 6]: 6.4 mg/dL
- Free Fatty Acids, Change From Baseline, Mean [2, 6]: -0.09 mEq/L
- Free Fatty Acids, Change From Baseline, Median [2, 6]: -0.04 mEq/L
- HDL Cholesterol, Change From Baseline, Mean [2, 6]: 0.86 mg/dL
- HDL Cholesterol, Change From Baseline, Median [2, 6]: 1.00 mg/dL
- LDL Cholesterol, Change From Baseline, Mean [2, 6]: 17.78 mg/dL
- LDL Cholesterol, Change From Baseline, Median [2, 6]: 20.50 mg/dL
- LP(a), Change From Baseline, Mean [2, 6]: 8.8 mg/dL
- Total Cholesterol, Change From Baseline, Mean [2, 6]: 19.96 mg/dL
- Total Cholesterol, Change From Baseline, Median [2, 6]: 21.00 mg/dL
- Triglycerides, Change From Baseline, Mean [2, 6]: -35.77 mg/dL
- Triglycerides, Change From Baseline, Median [2, 6]: 3.50 mg/dL
- VLDL Cholesterol, Change From Baseline, Mean [2, 6]: 3.54 mg/dL
- VLDL Cholesterol, Change From Baseline, Median [2, 6]: 3.50 mg/dL
- Apo A1, Change From Baseline, Mean [2, 7]: -1.5 mg/dL
- Apo B, Change From Baseline, Mean [2, 7]: 3.4 mg/dL
- Free Fatty Acids, Change From Baseline, Mean [2, 7]: -0.17 mEq/L
- Free Fatty Acids, Change From Baseline, Median [2, 7]: -0.12 mEq/L
- HDL Cholesterol, Change From Baseline, Mean [2, 7]: 2.99 mg/dL
- HDL Cholesterol, Change From Baseline, Median [2, 7]: 3.00 mg/dL
- LDL Cholesterol, Change From Baseline, Mean [2, 7]: 12.09 mg/dL
- LDL Cholesterol, Change From Baseline, Median [2, 7]: 11.00 mg/dL
- LP(a), Change From Baseline, Mean [2, 7]: 10.0 mg/dL
- Total Cholesterol, Change From Baseline, Mean [2, 7]: 24.78 mg/dL
- Total Cholesterol, Change From Baseline, Median [2, 7]: 20.00 mg/dL
- Triglycerides, Change From Baseline, Mean [2, 7]: -3.86 mg/dL
- Triglycerides, Change From Baseline, Median [2, 7]: -2.00 mg/dL
- VLDL Cholesterol, Change From Baseline, Mean [2, 7]: 8.48 mg/dL
- VLDL Cholesterol, Change From Baseline, Median [2, 7]: 3.00 mg/dL
- Apo A1, Change From Baseline, Mean [2, 8]: -1.9 mg/dL
- Apo B, Change From Baseline, Mean [2, 8]: 3.1 mg/dL
- Free Fatty Acids, Change From Baseline, Mean [2, 8]: -0.19 mEq/L
- Free Fatty Acids, Change From Baseline, Median [2, 8]: -0.11 mEq/L
- HDL Cholesterol, Change From Baseline, Mean [2, 8]: 4.53 mg/dL
- HDL Cholesterol, Change From Baseline, Median [2, 8]: 3.00 mg/dL
- LDL Cholesterol, Change From Baseline, Mean [2, 8]: 16.21 mg/dL
- LDL Cholesterol, Change From Baseline, Median [2, 8]: 15.00 mg/dL
- LP(a), Change From Baseline, Mean [2, 8]: 9.1 mg/dL
- Total Cholesterol, Change From Baseline, Mean [2, 8]: 25.88 mg/dL
- Total Cholesterol, Change From Baseline, Median [2, 8]: 20.50 mg/dL
- Triglycerides, Change From Baseline, Mean [2, 8]: -9.59 mg/dL
- Triglycerides, Change From Baseline, Median [2, 8]: -24.00 mg/dL
- VLDL Cholesterol, Change From Baseline, Mean [2, 8]: -0.36 mg/dL
- VLDL Cholesterol, Change From Baseline, Median [2, 8]: -3.00 mg/dL
- LDL adjusted mean increase, difference from glyburide ([2]; 200 mg, p<0.05): 23 mg/dL
- total cholesterol adjusted mean increase, difference from glyburide ([2]; 200 mg, p<0.05): 25 mg/dL
- total cholesterol adjusted mean increase, difference from glyburide ([2]; 400 mg, p<0.05): 26 mg/dL
- LDL adjusted mean increase, difference from glyburide ([2]; 600 mg, p<0.05): 19 mg/dL
- total cholesterol adjusted mean increase, difference from glyburide ([2]; 600 mg, p<0.05): 28 mg/dL
- atherogenic risk / lipid profile (result in words) ([2]; mono- or combination therapy): do not negatively impact atherogenic risk
- C-Peptide, Adjusted Mean Change From Baseline (SE) [3, 6]: -0.96 (0.07) ng/mL
- Total Insulin, Adjusted Mean Change From Baseline (SE) [3, 6]: -8.41 (1.39) μIU/mL
- C-Peptide, Adjusted Mean Difference From Glyburide [3, 6]: 0.29 ng/mL
- Total Insulin, Adjusted Mean Difference From Glyburide [3, 6]: -6.96 μIU/mL
- C-Peptide, Adjusted Mean Change From Baseline (SE) [3, 7]: -0.78 (0.07) ng/mL
- Total Insulin, Adjusted Mean Change From Baseline (SE) [3, 7]: -5.90 (1.40) μIU/mL
- C-Peptide, Adjusted Mean Difference From Glyburide [3, 7]: -0.11 ng/mL
- Total Insulin, Adjusted Mean Difference From Glyburide [3, 7]: -4.44 μIU/mL
- C-Peptide, Adjusted Mean Change From Baseline (SE) [3, 8]: -1.01 (0.08) ng/mL
- Total Insulin, Adjusted Mean Change From Baseline (SE) [3, 8]: -11.53 (1.42) μIU/mL
- C-Peptide, Adjusted Mean Difference From Glyburide [3, 8]: 0.34 ng/mL
- Total Insulin, Adjusted Mean Difference From Glyburide [3, 8]: -10.07 μIU/mL
- C-peptide (result in words) [3, 9]: Significant (p≤0.05) decreases in C-peptide were observed for troglitazone monotherapy only (200 and 600 mg troglitazone)
- total insulin (result in words) [3, 9]: significant (p≤0.05) decrease in total insulin compared with glyburide
- total insulin, completers (result in words) ([3]; completers, 400 and 600 mg troglitazone, p<0.05 vs glyburide): decreases in total insulin that were significantly different from glyburide (p<0.05)
- mean glucose AUC(0-2 hr) (result in words) [4]: decreased significantly (p ≤0.05) compared with glyburide
- trough plasma troglitazone concentrations (result in words) ([5]; dose dependence, mono versus combination): Mean trough troglitazone concentrations generally increased with increasing troglitazone doses

SMILES: COc1ccc(Cl)cc1C(=O)NCCc1ccc(S(=O)(=O)NC(=O)NC2CCCCC2)cc1 [Glyburide]
- LDL Cholesterol, Change From Baseline, Mean ([2]; Glynase (active control)): 3.49 mg/dL
- LDL Cholesterol, Change From Baseline, Median ([2]; Glynase (active control)): 4.00 mg/dL
- Total Cholesterol, Change From Baseline, Mean ([2]; Glynase (active control)): 6.17 mg/dL
- Total Cholesterol, Change From Baseline, Median ([2]; Glynase (active control)): 6.50 mg/dL
- Apo A1, Change From Baseline, Mean [2, 10]: -1.1 mg/dL
- Apo B, Change From Baseline, Mean [2, 10]: 2.9 mg/dL
- Free Fatty Acids, Change From Baseline, Mean [2, 10]: -0.05 mEq/L
- Free Fatty Acids, Change From Baseline, Median [2, 10]: 0.03 mEq/L
- HDL Cholesterol, Change From Baseline, Mean [2, 10]: -0.15 mg/dL
- HDL Cholesterol, Change From Baseline, Median [2, 10]: -1.00 mg/dL
- LP(a), Change From Baseline, Mean [2, 10]: 1.4 mg/dL
- Triglycerides, Change From Baseline, Mean [2, 10]: 14.24 mg/dL
- Triglycerides, Change From Baseline, Median [2, 10]: 8.00 mg/dL
- VLDL Cholesterol, Change From Baseline, Mean [2, 10]: -2.78 mg/dL
- VLDL Cholesterol, Change From Baseline, Median [2, 10]: -1.00 mg/dL
- Triglycerides, Change From Baseline, Mean ([2]; glyburide monotherapy (active control), listed as glyburide): 14 mg/dL
- C-Peptide, Adjusted Mean Change From Baseline (SE) [3, 10]: -0.67 (0.07) ng/mL
- Total Insulin, Adjusted Mean Change From Baseline (SE) [3, 10]: -1.45 (1.39) μIU/mL

Source: US5859037A, “Sulfonylurea-glitazone combinations for diabetes” (Warner-Lambert Company, priority 1997, dated 1999)
